Series [1] has as its target T1, Integrin alpha-V/beta-6 (Homo sapiens, UniProt P06756+P18564). The series is described as follows: Binding affinity to alphav/beta6 integrin in human A375Pbeta6 cells assessed as drug internalization at 100 nM after 15 mins by flow cytometric analysis relative to biotinylated A20FMDV2. Format: ADME, cell-based. The settings on record: 0.25 h, 0.1 µM. Background: In flow cytometry, cells or beads pass a laser one at a time.
Target sequence in this assay (P06756 31-889 limits assumed): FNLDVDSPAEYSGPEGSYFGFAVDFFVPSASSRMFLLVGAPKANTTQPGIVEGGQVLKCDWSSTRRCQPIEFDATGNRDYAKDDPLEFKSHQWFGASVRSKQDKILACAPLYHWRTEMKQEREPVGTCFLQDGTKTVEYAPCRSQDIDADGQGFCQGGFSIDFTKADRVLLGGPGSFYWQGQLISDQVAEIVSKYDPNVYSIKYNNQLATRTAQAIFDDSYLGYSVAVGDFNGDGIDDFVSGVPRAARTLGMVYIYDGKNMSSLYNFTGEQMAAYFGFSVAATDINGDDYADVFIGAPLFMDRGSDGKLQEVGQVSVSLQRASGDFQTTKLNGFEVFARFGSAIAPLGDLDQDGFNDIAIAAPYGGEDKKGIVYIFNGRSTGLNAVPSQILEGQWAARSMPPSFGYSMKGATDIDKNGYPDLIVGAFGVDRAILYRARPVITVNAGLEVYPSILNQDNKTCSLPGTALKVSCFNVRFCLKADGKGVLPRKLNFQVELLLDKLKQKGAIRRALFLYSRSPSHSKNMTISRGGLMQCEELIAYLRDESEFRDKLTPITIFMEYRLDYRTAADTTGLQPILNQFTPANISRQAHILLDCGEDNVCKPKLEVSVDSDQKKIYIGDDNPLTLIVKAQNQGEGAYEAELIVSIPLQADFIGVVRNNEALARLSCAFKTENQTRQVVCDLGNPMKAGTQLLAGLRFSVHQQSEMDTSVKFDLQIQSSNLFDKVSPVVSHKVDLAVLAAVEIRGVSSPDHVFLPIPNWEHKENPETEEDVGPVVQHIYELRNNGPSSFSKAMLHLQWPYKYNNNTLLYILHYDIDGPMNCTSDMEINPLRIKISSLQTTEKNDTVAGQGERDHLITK
Target sequence in this assay (P06756 891-1048 limits assumed): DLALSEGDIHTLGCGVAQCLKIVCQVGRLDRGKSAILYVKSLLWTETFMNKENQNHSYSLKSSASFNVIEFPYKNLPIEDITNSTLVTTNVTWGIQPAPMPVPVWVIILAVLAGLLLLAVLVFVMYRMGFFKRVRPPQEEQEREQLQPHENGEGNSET
Target sequence in this assay (P18564 22-788 limits assumed): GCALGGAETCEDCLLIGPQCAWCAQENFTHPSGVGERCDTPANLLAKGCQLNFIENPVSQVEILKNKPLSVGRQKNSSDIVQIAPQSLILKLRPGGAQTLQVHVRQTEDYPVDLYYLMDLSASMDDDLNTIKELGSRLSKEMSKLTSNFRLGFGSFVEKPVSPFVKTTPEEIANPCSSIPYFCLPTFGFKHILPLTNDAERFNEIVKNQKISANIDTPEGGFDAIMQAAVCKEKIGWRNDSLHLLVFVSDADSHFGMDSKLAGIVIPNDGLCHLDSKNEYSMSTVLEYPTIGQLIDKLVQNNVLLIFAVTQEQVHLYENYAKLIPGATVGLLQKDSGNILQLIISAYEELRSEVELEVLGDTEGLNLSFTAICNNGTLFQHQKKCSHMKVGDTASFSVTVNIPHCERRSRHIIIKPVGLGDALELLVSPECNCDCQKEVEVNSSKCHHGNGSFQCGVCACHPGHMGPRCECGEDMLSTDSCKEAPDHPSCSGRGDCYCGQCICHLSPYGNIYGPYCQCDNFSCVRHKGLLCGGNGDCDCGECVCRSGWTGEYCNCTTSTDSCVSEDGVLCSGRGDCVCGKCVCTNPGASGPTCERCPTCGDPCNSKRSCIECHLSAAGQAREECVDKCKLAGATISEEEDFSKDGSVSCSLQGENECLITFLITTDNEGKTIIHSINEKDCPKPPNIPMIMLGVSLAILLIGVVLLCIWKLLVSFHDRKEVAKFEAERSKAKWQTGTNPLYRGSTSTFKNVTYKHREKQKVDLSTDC

Series [2] concerns the target T1, Integrin alpha-V/beta-6. In words: Binding affinity to alphav/beta6 integrin in human A375Pbeta6 cells at 100 nM after 15 mins by flow cytometric analysis relative to biotinylated A20FMDV2. Type of series: cell-based.
Series [3] is described as follows: Drug uptake in human A375PPuro cells at 1000 nM after 15 mins by flow cytometric analysis. Type of series: ADME, cell-based. The settings on record: 0.25 h, 1 µM.

`CC(C)C[C@H](NC(=O)[C@H](CC(=O)O)NC(=O)CNC(=O)[C@H](CCCNC(=N)N)NC(=O)[C@H](CC(C)C)NC(=O)[C@H](CC(N)=O)NC(=O)[C@@H]1CCCN1C(=O)[C@@H](NC(=O)[C@H](CCCCNC(=O)CCCC[C@@H]1SC[C@@H]2NC(=O)N[C@@H]21)NC(=O)[C@@H](N)CC(N)=O)C(C)C)C(=O)N[C@@H](CCC(N)=O)C(=O)N[C@H](C(=O)N[C@@H](CC(C)C)C(=O)N[C@@H](C)C(=O)N[C@@H](CCC(N)=O)C(=O)N(C)[C@@H](CCCCN)C(=O)N[C@H](C(=O)N[C@@H](C)C(=O)N[C@@H](CCCNC(=N)N)C(=O)N[C@H](C(=O)O)[C@@H](C)O)C(C)C)C(C)C`: the entries for the “fold change (FC)” value at Integrin alpha-V/beta-6 [1] and on Integrin alpha-V/beta-6 [2] were 0.89 and 0.37, respectively. Besides, the Drug uptake entry in series [3] is listed as “Not Active”.

For the compound `CC(C)C[C@H](NC(=O)[C@H](CC(=O)O)NC(=O)CNC(=O)[C@H](CCCNC(=N)N)NC(=O)[C@H](CC(C)C)NC(=O)[C@H](CC(N)=O)NC(=O)[C@@H]1CCCN1C(=O)[C@@H](NC(=O)[C@H](CCCCNC(=O)CCCC[C@@H]1SC[C@@H]2NC(=O)N[C@@H]21)NC(=O)[C@H](CC(N)=O)NC(=O)CNC(=O)CN(CCN(CCN(CC(=O)O)CC(=O)O)CC(=O)O)CC(=O)O)C(C)C)C(=O)N[C@@H](CCC(N)=O)C(=O)N[C@H](C(=O)N[C@@H](CC(C)C)C(=O)N[C@@H](C)C(=O)N[C@@H](CCC(N)=O)C(=O)N[C@@H](CCCCN)C(=O)N[C@H](C(=O)N[C@@H](C)C(=O)N[C@@H](CCCNC(=N)N)C(=O)N[C@H](C(=O)O)[C@@H](C)O)C(C)C)C(C)C`, the “fold change (FC)” value came to 0.97 at Integrin alpha-V/beta-6 [1] and 1.28 at Integrin alpha-V/beta-6 [2]. Also, in series [3], the Drug uptake entry is recorded as “Not Active”.

With `CCC[C@H](NC(=O)[C@@H](NC(=O)[C@H](CCC(N)=O)NC(=O)[C@H](CC(C)C)NC(=O)[C@H](CC(=O)O)NC(=O)CNC(=O)[C@H](CCCNC(=N)N)NC(=O)[C@H](CC(C)C)NC(=O)[C@H](CC(N)=O)NC(=O)[C@@H]1CCCN1C(=O)[C@@H](NC(=O)[C@H](CCCCNC(=O)CCCC[C@@H]1SC[C@@H]2NC(=O)N[C@@H]21)NC(=O)[C@@H](N)CC(N)=O)C(C)C)C(C)C)C(=O)N[C@@H](C)C(=O)N[C@@H](CCC(N)=O)C(=O)N[C@@H](CCCCN)C(=O)N[C@H](C(=O)N[C@@H](C)C(=O)N[C@@H](CCCNC(=N)N)C(=O)N[C@H](C(=O)O)[C@@H](C)O)C(C)C`, the “fold change (FC)” value on Integrin alpha-V/beta-6 [1] was 1.09; on Integrin alpha-V/beta-6 [2], 0.77. The Drug uptake result in series [3] is recorded as “Not Active”.

Turning to `CC(C)CC[C@H](NC(=O)[C@@H](NC(=O)[C@H](CCC(N)=O)NC(=O)[C@H](CC(C)C)NC(=O)[C@H](CC(=O)O)NC(=O)CNC(=O)[C@H](CCCNC(=N)N)NC(=O)[C@H](CC(C)C)NC(=O)[C@H](CC(N)=O)NC(=O)[C@@H]1CCCN1C(=O)[C@@H](NC(=O)[C@H](CCCCNC(=O)CCCC[C@@H]1SC[C@@H]2NC(=O)N[C@@H]21)NC(=O)[C@@H](N)CC(N)=O)C(C)C)C(C)C)C(=O)N[C@@H](C)C(=O)N[C@@H](CCC(N)=O)C(=O)N[C@@H](CCCCN)C(=O)N[C@H](C(=O)N[C@@H](C)C(=O)N[C@@H](CCCNC(=N)N)C(=O)N[C@H](C(=O)O)[C@@H](C)O)C(C)C`, the “fold change (FC)” value stood at 0.66 at Integrin alpha-V/beta-6 [1] and 0.45 on Integrin alpha-V/beta-6 [2]. The Drug uptake entry in series [3] is “Not Active”.

As for `CC(C)C[C@H](NC(=O)[C@H](CC(=O)O)NC(=O)CNC(=O)[C@H](CCCNC(=N)N)NC(=O)[C@H](CC(C)C)NC(=O)[C@H](CC(N)=O)NC(=O)[C@@H]1CCCN1C(=O)[C@@H](NC(=O)[C@H](CCCCNC(=O)CCCC[C@@H]1SC[C@@H]2NC(=O)N[C@@H]21)NC(=O)[C@@H](N)CC(N)=O)C(C)C)C(=O)N[C@@H](CCC(N)=O)C(=O)N[C@H](C(=O)N[C@@H](CC(C)C)C(=O)N[C@@H](C)C(=O)N[C@@H](CCC(N)=O)C(=O)N[C@H](CCCCN)C(=O)N[C@H](C(=O)N[C@@H](C)C(=O)N[C@@H](CCCNC(=N)N)C(=O)N[C@H](C(=O)O)[C@@H](C)O)C(C)C)C(C)C`, the figures for the “fold change (FC)” value at Integrin alpha-V/beta-6 [1] and at Integrin alpha-V/beta-6 [2] were 0.78 and 1.11, respectively. The Drug uptake result in series [3] was “Not Active”.

On to `CC(C)C[C@H](NC(=O)[C@H](CC(=O)O)NC(=O)CNC(=O)[C@H](CCCNC(=N)N)NC(=O)[C@H](CC(C)C)NC(=O)[C@H](CC(N)=O)NC(=O)[C@@H]1CCCN1C(=O)[C@@H](NC(=O)[C@H](CCCCNC(=O)CCCC[C@@H]1SC[C@@H]2NC(=O)N[C@@H]21)NC(=O)[C@@H](N)CC(N)=O)C(C)C)C(=O)N[C@@H](CCC(N)=O)C(=O)N[C@H](C(=O)N[C@@H](CC(C)C)C(=O)N[C@@H](C)C(=O)N[C@@H](CCC(N)=O)C(=O)N[C@@H](CCN)C(=O)N[C@H](C(=O)N[C@@H](C)C(=O)N[C@@H](CCCNC(=N)N)C(=O)N[C@H](C(=O)O)[C@@H](C)O)C(C)C)C(C)C`, for which the “fold change (FC)” value amounted to 0.86 at Integrin alpha-V/beta-6 [1] and 1 on Integrin alpha-V/beta-6 [2]. For the same compound, the Drug uptake entry in series [3] is recorded as “Not Active”.

Take `CC(C)C[C@H](NC(=O)[C@H](CC(=O)O)NC(=O)CNC(=O)[C@H](CCCNC(=N)N)NC(=O)[C@H](CC(C)C)NC(=O)[C@H](CC(N)=O)NC(=O)[C@@H]1CCCN1C(=O)[C@@H](NC(=O)[C@H](CCCCNC(=O)CCCC[C@@H]1SC[C@@H]2NC(=O)N[C@@H]21)NC(=O)[C@@H](N)CC(N)=O)C(C)C)C(=O)N[C@@H](CCC(N)=O)C(=O)N[C@H](C(=O)N[C@@H](CC(C)C)C(=O)N[C@@H](C)C(=O)N[C@@H](CCC(N)=O)C(=O)N[C@@H](CCCN)C(=O)N[C@H](C(=O)N[C@@H](C)C(=O)N[C@@H](CCCNC(=N)N)C(=O)N[C@H](C(=O)O)[C@@H](C)O)C(C)C)C(C)C`: the “fold change (FC)” value on Integrin alpha-V/beta-6 [1] turned out to be 0.86; at Integrin alpha-V/beta-6 [2], 1.12. Moreover, in series [3], the Drug uptake entry is “Not Active”.

`CC(=O)N[C@@H](CC(N)=O)C(=O)N[C@@H](CCCCNC(=O)CCCC[C@@H]1SC[C@@H]2NC(=O)N[C@@H]21)C(=O)N[C@H](C(=O)N1CCC[C@H]1C(=O)N[C@@H](CC(N)=O)C(=O)N[C@@H](CC(C)C)C(=O)N[C@@H](CCCNC(=N)N)C(=O)NCC(=O)N[C@@H](CC(=O)O)C(=O)N[C@@H](CC(C)C)C(=O)N[C@@H](CCC(N)=O)C(=O)N[C@H](C(=O)N[C@@H](CC(C)C)C(=O)N[C@@H](C)C(=O)N[C@@H](CCC(N)=O)C(=O)N[C@@H](CCCCN)C(=O)N[C@H](C(=O)N[C@@H](C)C(=O)N[C@@H](CCCNC(=N)N)C(=O)N[C@H](C(N)=O)[C@@H](C)O)C(C)C)C(C)C)C(C)C`: the results for the “fold change (FC)” value on Integrin alpha-V/beta-6 [1] and at Integrin alpha-V/beta-6 [2] were 0.87 and 1.25, respectively. Besides, the Drug uptake result in series [3] is on record as “Not Active”.

`CC(C)C[C@H](NC(=O)[C@H](CC(=O)O)NC(=O)CNC(=O)[C@H](CCCNC(=N)N)NC(=O)[C@H](CC(C)C)NC(=O)[C@H](CC(N)=O)NC(=O)[C@@H]1CCCN1C(=O)[C@@H](NC(=O)[C@H](CCCCNC(=O)CCCC[C@@H]1SC[C@@H]2NC(=O)N[C@@H]21)NC(=O)[C@@H](N)CC(N)=O)C(C)C)C(=O)N[C@@H](CCC(N)=O)C(=O)N[C@H](C(=O)N[C@@H](CC1CCCCC1)C(=O)N[C@@H](C)C(=O)N[C@@H](CCC(N)=O)C(=O)N[C@@H](CCCCN)C(=O)N[C@H](C(=O)N[C@@H](C)C(=O)N[C@@H](CCCNC(=N)N)C(=O)N[C@H](C(=O)O)[C@@H](C)O)C(C)C)C(C)C`: the “fold change (FC)” value at Integrin alpha-V/beta-6 [1] came to 1.01; on Integrin alpha-V/beta-6 [2] it was 0.62. In series [3], the Drug uptake entry is listed as “Not Active”.

Turning to `CC(C)C[C@H](NC(=O)[C@H](CC(=O)O)NC(=O)CNC(=O)[C@H](CCCNC(=N)N)NC(=O)[C@H](CC(C)C)NC(=O)[C@H](CC(N)=O)NC(=O)[C@@H]1CCCN1C(=O)[C@@H](NC(=O)[C@H](CCCCNC(=O)CCCC[C@@H]1SC[C@@H]2NC(=O)N[C@@H]21)NC(=O)[C@@H](N)CC(N)=O)C(C)C)C(=O)N[C@@H](CCC(N)=O)C(=O)N[C@H](C(=O)N[C@H](C(=O)N[C@@H](C)C(=O)N[C@@H](CCC(N)=O)C(=O)N[C@@H](CCCCN)C(=O)N[C@H](C(=O)N[C@@H](C)C(=O)N[C@@H](CCCNC(=N)N)C(=O)N[C@H](C(=O)O)[C@@H](C)O)C(C)C)C12CC3CC(CC(C3)C1)C2)C(C)C`, the “fold change (FC)” value turned out to be 1.07 on Integrin alpha-V/beta-6 [1] and 0.51 on Integrin alpha-V/beta-6 [2]. In addition, the Drug uptake result in series [3] is listed as “Not Active”.

As to `CC(C)C[C@H](NC(=O)[C@H](CC(=O)O)NC(=O)CNC(=O)[C@H](CCCNC(=N)N)NC(=O)[C@H](CC(C)C)NC(=O)[C@H](CC(N)=O)NC(=O)[C@@H]1CCCN1C(=O)[C@@H](NC(=O)[C@H](CCCCNC(=O)CCCC[C@@H]1SC[C@@H]2NC(=O)N[C@@H]21)NC(=O)[C@@H](N)CC(N)=O)C(C)C)C(=O)N[C@@H](CCC(N)=O)C(=O)N[C@H](C(=O)NC(C)(C)C(=O)N[C@@H](C)C(=O)N[C@@H](CCC(N)=O)C(=O)N[C@@H](CCCCN)C(=O)N[C@H](C(=O)N[C@@H](C)C(=O)N[C@@H](CCCNC(=N)N)C(=O)N[C@H](C(=O)O)[C@@H](C)O)C(C)C)C(C)C`, the “fold change (FC)” value worked out at 1.11 at Integrin alpha-V/beta-6 [1] and 1.07 at Integrin alpha-V/beta-6 [2]. In addition, in series [3], the Drug uptake entry is recorded as “Not Active”.

With `CC(C)C[C@H](NC(=O)[C@H](CC(=O)O)NC(=O)CNC(=O)[C@H](CCCNC(=N)N)NC(=O)[C@H](CC(C)C)NC(=O)[C@H](CC(N)=O)NC(=O)[C@@H]1CCCN1C(=O)[C@@H](NC(=O)[C@H](CCCCNC(=O)CCCC[C@@H]1SC[C@@H]2NC(=O)N[C@@H]21)NC(=O)[C@@H](N)CC(N)=O)C(C)C)C(=O)N[C@@H](CCC(N)=O)C(=O)N[C@H](C(=O)N[C@@H](CC(C)C)C(=O)N[C@@H](C)C(=O)N[C@@H](CCC(N)=O)C(=O)N[C@@H](CCCCN)C(=O)N[C@H](C(=O)N[C@@H](C)C(=O)N[C@@H](CCCNC(=N)N)C(=O)N[C@@H](C(=O)O)[C@H](C)O)C(C)C)C(C)C`, the “fold change (FC)” value at Integrin alpha-V/beta-6 [1] worked out at 0.99; at Integrin alpha-V/beta-6 [2] it was 0.53. Besides, in series [3], the Drug uptake result is listed as “Not Active”.

Values taken from ChEMBL document CHEMBL4138084, “Structure-activity relationship study of the tumour-targeting peptide A20FMDV2 via modification of Lys16, Leu13, and N- and/or C-terminal functionality” (Eur J Med Chem, 2017).
